The subject of data set [1] is reduced glutathione (GSH). The experiment in a line: Glutathione (GSH) reactivity assay. It is filed as physicochemical. The settings on record: 5 mM reduced glutathione (GSH) in potassium phosphate buffer; 5 mM GSH, 37 °C, pH 7.4. The procedure: MN551/MN714 (1/10 μM) were incubated at 37 °C with 5 mM GSH in 100 mM potassium phosphate buffer, pH 7.4 (0.1% DMSO). […] Samples were then analyzed with an LC (Shimadzu LC-40)/MS/MS (Triple Quad 6500+). From the mass spectrum, peak area ratios (peak area analyte/peak area of a stable internal standard) were calculated and the percent compound remaining was determined relative to time zero.

The target in data set [2] is T1, HiBiT-SOCS2 fusion in HeLa cells (Homo sapiens, UniProt O14508).
T1 construct: encoding SOCS2 (32–198) in pBiT3.1-N expression vector; expressed in transfected cells; host or cells: HeLa
The experiment in a line: Split-NanoLuc CETSA, permeabilised cell format. It is filed as cell-based. The procedure:
One of the challenges with small-molecule binders displaying on-target activity with recombinant proteins, is to translate their utility to a cellular context. […] One of the advantages of CETSA is that target engagement can be monitored without the need for the development of a cell-permeable tracer molecule.
To test the cellular activity of MN551, we treated HeLa cells with 50 μM MN551 for 20 h and performed CETSA in a live-cell mode. We observed a small Tagg shift of 2 °C in live mode, which increased to 3–4 °C Tagg shift in the permeabilised format (Fig. 4d). We postulate that this observation could likely be a result of the low cellular permeability of MN551 owing to its negatively charged phosphate group.
N-terminal HiBiT-SOCS2 fusion was generated by encoding SOCS2 (32–198) in pBiT3.1-N expression vector (Promega). The transfection and target engagement assay were performed by modifying a NanoLuc target engagement protocol (Promega) with some small modifications. Briefly, HiBiT-SOCS2 fusion construct was transfected into HeLa cells using FuGENE HD (Promega) according to the manufacturer’s protocol. HiBiT-SOCS2 fusion construct was diluted into Transfection Carrier DNA (Promega) at a mass ratio of 1:100 or 1:10 for permeabilised and live-cell CETSA respectively. FuGENE HD was added at a ratio of 1:3 (μg DNA: μL FuGENE HD). 1 part (vol) of FuGENE HD complexes thus formed were combined with 20 parts (vol) of HeLa cells suspended at a density of 2 × 10^5 cells/mL, followed by incubation in a humidified, 37 °C + 5% CO2 incubator. After 20 h of incubation HeLa cells were detached and resuspended at a density of 2.5 × 10^5 cells/mL in Opti-MEM media without serum or phenol red but supplemented with protease inhibitor cocktail (Roche). […] Luminescence was recorded with GloMax Discover Microplate Reader (Promega). To generate apparent Tagg curves, the data is first converted to percent stabilized by relating the observed luminescence to the luminescence of the lowest temperature (40 °C) for that given sample. […]

The target in data set [3] is T2, SOCS2 (Homo sapiens, UniProt O14508).
T2 construct: endogenous SOCS2 from K562 lysates; endogenous in cells; host or cells: K562
T2 sequence (O14508 1-198): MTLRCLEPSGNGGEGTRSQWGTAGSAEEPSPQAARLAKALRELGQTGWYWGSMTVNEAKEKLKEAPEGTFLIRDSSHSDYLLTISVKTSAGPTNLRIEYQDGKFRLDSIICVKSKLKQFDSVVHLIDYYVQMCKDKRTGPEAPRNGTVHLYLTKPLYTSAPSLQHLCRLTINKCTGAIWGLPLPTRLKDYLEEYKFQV
Kind of data set: SOCS2 pulldown with biotinylated GHR_pY595 peptide from K562 cell lysates preincubated with compound. The format is biochemical. The procedure:
(§1) Pulldown of cellular SOCS2 was abrogated when K562 cells were pre-treated for 6 h with MN714 prior to cell lysis, further evidencing the inhibitor cell permeability and specific target engagement (Fig. 6c).
(§2) K562 cells were treated with either DMSO or 10 µM MN714 for 6 h before being lysed. For experiments with MN551, DMSO-treated lysate was used. DMSO-treated K562 lysate (1 mg/ml) was pre-cleared using control agarose beads (Pierce Control Agarose Resin, 26150) which were washed thrice using 50 mM Tris pH 7.4, 150 mM NaCl buffer. […] Unbound peptide was washed off through 3× cycles of buffer wash and spin. Beads were resuspended to a total volume of 100 µl per IP sample. 100 µl beads with immobilized peptides was added to the MN551 lysate tubes. Samples were incubated for 40 min at room temperature. Samples were spun and unbound supernatant was removed. Beads were washed 3× with 0.05% NP40, 50 mM Tris pH 7.4, 150 mM NaCl buffer before being resuspended in 35 µl 1× LDS. Samples were heated for 10 min at 95 °C after which the elute was transferred to a fresh tube. 20 µl of each sample was analyzed by Western Blot (4-12% Bis-Tris gel 180 V, 60 mins) before blotting for SOCS2 (ab109245, 1:1000 dilution) overnight at 4 °C. Uncropped blot images collected with ChemiDoc Touch imaging system (BioRad) operated by Image Lab (v2.4.0.03) and antibody validation provided in Source Data. […]

For data set [4], the target named is T2, SOCS2. Kind of data set: SOCS2 pulldown with biotinylated GHR_pY595 peptide from K562 cells pre-treated with compound. The format is cell-based. The settings on record: K562 cells pre-treated with 10 µM for 6 h. The procedure:
as §1, §2

Where “and” joins values, the source holds several entries; their conditions need not be identical. Equal entries are not always repeated. Entries after “also recorded” stand apart in the source; their conditions may differ. Where two headings read alike, the source gives them in different places.

T1 sequence (Q15370 whole entry, one chain of several, further chain, the tested form may be a part): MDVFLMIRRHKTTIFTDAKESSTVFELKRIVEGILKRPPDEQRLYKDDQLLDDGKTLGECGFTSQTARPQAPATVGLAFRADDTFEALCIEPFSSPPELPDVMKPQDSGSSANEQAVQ
T1 sequence (Q15369 whole entry, one chain of several, further chain, the tested form may be a part): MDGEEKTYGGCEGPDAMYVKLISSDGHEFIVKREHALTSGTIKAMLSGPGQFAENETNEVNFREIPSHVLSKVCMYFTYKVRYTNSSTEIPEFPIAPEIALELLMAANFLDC

Regarding `O=C(CCl)Nc1cccc(CNC(=O)[C@H](Cc2ccc(OP(=O)(O)O)cc2)NC(=O)Cc2ccc(F)cc2)c1` [MN551], the half-life (in general, the time needed for the level to fall by half in the phase considered) in data set [1] is above 1.17 h. Further, the EC50 in data set [2] (MN551 CETSA dose response, Mean, read-out: EC50) was 1010 nM; in data set [2] (MN551 CETSA dose response, single replicates, read-out: EC50, individual replicates n1-n2) it was 755 nM and 1260 nM; in data set [2] (permeabilised CETSA, 1 hr, mean ± SEM, n = 2, read-out: EC50 of Tagg shift) it was 1000 ± 250 nM. For the same compound, the concentration for half-maximal inhibition (IC50) – broadly, the midpoint of a concentration-inhibition curve – on SOCS2 [3] (K562 cell lysates, mean ± SEM, technical replicates = 2, read-out: IC50 of reduction of SOCS2 pulled down with biotinylated GHR pY595) was 5900 ± 2600 nM; at SOCS2 [3] (K562 lysates, version shown in the peer review file, read-out: apparent IC50 of blockade of SOCS2 pull-down), 9000 nM.

For the compound `CC(C)(C)C(=O)OCOP(=O)(OCOC(=O)C(C)(C)C)Oc1ccc(C[C@H](NC(=O)Cc2ccc(F)cc2)C(=O)NCc2cccc(NC(=O)CCl)c2)cc1` [MN714], the “pulldown of cellular SOCS2 with GHR pY595 peptide” value on SOCS2 [4] is “abrogated; also recorded: effective blockade of SOCS2-GHRpY interaction”.

The values are drawn from publication PMC10564737, “Structure-based design of a phosphotyrosine-masked covalent ligand targeting the E3 ligase SOCS2” (Nature Communications, 2023).
